ChEMBL document CHEMBL1157539, “Thousands of chemical starting points for antimalarial lead identification” (Nature, 2010)

System: Plasmodium falciparum
Test: GSK_TCMDC: Inhibition of Plasmodium falciparum 3D7 in whole erythrocytes, using parasite LDH activity as an index of growth.
Type: functional, organism-based

O=C(Nc1cccc(N2CCC(NCCCc3ccncc3)CC2)c1)c1cccc(C(F)(F)F)c1
XC50 (Plasmodium falciparum, 3D7): 853 nM

Cc1cccc(C)c1CNc1cccc(-c2nc(C)c(C)[nH]2)c1
XC50 (Plasmodium falciparum, 3D7): 883 nM

O=C(/C=C/c1ccc(Cl)c(Cl)c1)NCCCCCN1CCC(NC(=O)c2ccc3ccccc3c2)CC1
XC50 (Plasmodium falciparum, 3D7): 1020 nM

Cc1nc2nc(N)nc(N)c2c(C)c1Cc1ccc(Cl)cc1
XC50 (Plasmodium falciparum, 3D7): 216 nM

CCCC[C@H](NC(=O)O[C@H](COc1ccc(OCc2ccccc2)cc1)C(C)(C)C)C(=O)C(=O)Nc1cc[nH]n1
XC50 (Plasmodium falciparum, 3D7): 991 nM

O=C(Nc1cccc(-c2ccc(-c3nc4ccccc4[nH]3)cc2)c1)Nc1ccc2c(c1)OCO2
XC50 (Plasmodium falciparum, 3D7): 671 nM

O=C(/C=C/c1cc(F)c(F)cc1F)N1CCC(CN2CCC(c3c[nH]c4ccccc34)CC2)CC1
XC50 (Plasmodium falciparum, 3D7): 995 nM

CC(CCCCCC(=O)Nc1ccc(CC(C)NCCc2cccc(Cl)c2)cc1)NCCc1cccc(Cl)c1 (centres undefined)
XC50 (Plasmodium falciparum, 3D7): 948 nM

Cc1ccc(/C=C/C(=O)NC2CCC(CN3CCC(c4c[nH]c5ccccc45)CC3)CC2)cc1C (centres undefined)
XC50: 821 nM | XC50 (Plasmodium falciparum, 3D7): 832 nM

CCOC(=O)c1cccc(NC(=N)Nc2nc(C)cc(NCCc3ccccc3)n2)c1
XC50 (Plasmodium falciparum, 3D7): 684 nM

COc1ccc(CN(C)CC(O)COc2ccc(NC(=O)c3cccc4c(=O)c5cccc(OC)c5[nH]c34)cc2)cc1OC (centres undefined)
XC50 (Plasmodium falciparum, 3D7): 780 nM

CCOC(=O)C1=C(C)NC2=C(C(=O)CCC2)C1c1cn(Cc2ccc(Cl)cc2Cl)nc1-c1ccccc1 (centres undefined)
XC50 (Plasmodium falciparum, 3D7): 625 nM

CCOc1cc(C(C)C)ccc1N1CCN(CCCCNC(=O)c2ccc(NC(=O)c3ccc(Cl)cc3)cc2)CC1
XC50 (Plasmodium falciparum, 3D7): 416 nM

COc1cc2nc(C)nc(Nc3ccc(Cc4ccccc4)cc3)c2cc1OC
XC50 (Plasmodium falciparum, 3D7): 730 nM

S=C(NCCc1ccccc1)Nc1ccc2ncsc2c1
XC50 (Plasmodium falciparum, 3D7): 1400 nM

CCOC(=O)C(=O)N1c2ccc(OCC)cc2-c2c(ssc2=S)C1(C)C
XC50 (Plasmodium falciparum, 3D7): 216 nM

CN(C)c1ccnc2ccc(NC(=O)Nc3ccnc4ccccc34)cc12
XC50 (Plasmodium falciparum, 3D7): 133 nM

Oc1ccccc1CN1CCCC(COC(c2ccc(F)cc2)c2ccc(F)cc2)C1 (centres undefined)
XC50 (Plasmodium falciparum, 3D7): 775 nM

CCN(CC)CCCCCNc1c2ccc(Cl)cc2nc2ccc(OC)cc12
XC50 (Plasmodium falciparum, 3D7): 50.6 nM

NCCC(=O)Nc1ccc(-c2cnc3[nH]cc(-c4ccc(C(=O)O)cc4)c3c2)cn1
XC50 (Plasmodium falciparum, 3D7): 842 nM

CCCOc1ccc(CNCCCCCCNCc2ccc(OCCC)c3ccccc23)c2ccccc12
XC50 (Plasmodium falciparum, 3D7): 410 nM

Cc1cc(-c2cc3nc4c(c(O)n3n2)CCCC4)c(C)o1
XC50 (Plasmodium falciparum, 3D7): 821 nM

Cn1c(=N)n(CC(=O)OCc2ccc(OCc3ccccc3)cc2)c2ccccc21
XC50 (Plasmodium falciparum, 3D7): 81.9 nM

COc1cc(NC(=O)/C=C/c2cc(F)cc(F)c2F)cc(OCCN2CCCCC2)c1
XC50 (Plasmodium falciparum, 3D7): 153 nM

COc1cccc2cc(C(=O)N[C@@H](CC(C)C)C(=O)N[C@H](C=NN3CCCC3=O)Cc3ccccc3)oc12
XC50 (Plasmodium falciparum, 3D7): 558 nM

O=c1nc(NCCCNCc2cc3c(Cl)cc(Cl)cc3[nH]2)[nH]c2ccsc12
XC50 (Plasmodium falciparum, 3D7): 1120 nM

Oc1ccc2c(c1CNC1CCCCC1)CCCC2
XC50 (Plasmodium falciparum, 3D7): 938 nM

O=C(N[C@@H](Cc1ccccc1)C(=O)NC1CCCc2ccccc21)c1ccc(O)c(-c2cccc(C(F)(F)F)c2)c1 (some centres undefined)
XC50 (Plasmodium falciparum, 3D7): 1000 nM

C[C@@H](CC1CCCCC1)OC(=O)N(C)[C@H]1CCN(C#N)C1
XC50 (Plasmodium falciparum, 3D7): 219 nM

CN(C)CCCOC(=O)c1cc2cc(-c3ccccc3)ccc2n1S(=O)(=O)Cc1ccccc1
XC50 (Plasmodium falciparum, 3D7): 361 nM

CCCCCN1CCC(NS(=O)(=O)c2cccc(C(=O)Nc3ccc(Cl)cc3)c2)CC1
XC50 (Plasmodium falciparum, 3D7): 918 nM

COc1cc(C=CC(=O)N2CCN(Cc3cccc(C)c3)CC2)ccc1OCc1c(C)noc1C
XC50 (Plasmodium falciparum, 3D7): 1030 nM

O=C(c1cccc(Cl)c1)N1CCN(c2ccc([N+](=O)[O-])c(NC3CC3)c2)CC1
XC50 (Plasmodium falciparum, 3D7): 867 nM

Oc1ccc2[nH]c(-c3cccc(F)c3)nc2c1CN1CCC(O)(c2ccccc2)CC1
XC50 (Plasmodium falciparum, 3D7): 994 nM

O=S(=O)(NCCN1CCCC1)c1cccc(-c2ccc(CNCc3ccccc3)cc2)c1
XC50 (Plasmodium falciparum, 3D7): 1000 nM

CN1CCN(CCCNCc2cccc(Nc3nccc(Nc4ccc(Oc5ccccc5)cc4)n3)c2)CC1
XC50 (Plasmodium falciparum, 3D7): 765 nM

CC(C)(CNC(=O)C1CCN(CCOCc2ccccc2)CC1)c1nc(-c2ccc(Cl)c(O)c2)c(-c2ccncc2)[nH]1
XC50 (Plasmodium falciparum, 3D7): 620 nM

COc1ccc(C2CNCc3c2cc(OC)c(OC)c3Cl)cc1 (centres undefined)
XC50 (Plasmodium falciparum, 3D7): 731 nM

COc1ccc(-c2cc(-c3nc4cc(CN)ccc4[nH]3)c(=O)n(C)c2)cc1OC
XC50 (Plasmodium falciparum, 3D7): 1400 nM

OC1=C2C(=Nc3ccccc3SC2c2ccccc2)c2ccccc21 (centres undefined)
XC50 (Plasmodium falciparum, 3D7): 325 nM

Cc1nc2nc(N)nc(N)c2c(C)c1Cc1c(Cl)cccc1Cl
XC50 (Plasmodium falciparum, 3D7): 48.9 nM

Cc1noc(NC(=O)c2sc3ccccc3c2O)c1C
XC50 (Plasmodium falciparum, 3D7): 852 nM

O=C(NCCNc1ccnc(Nc2ccc(F)cc2)n1)Nc1ccccc1F
XC50 (Plasmodium falciparum, 3D7): 762 nM

CCC[C@@H]([C@@H](CC1CCCCC1)C(=O)N[C@H](C(=O)Nc1nccs1)C(C)(C)SC)N(O)C=O
XC50 (Plasmodium falciparum, 3D7): 152 nM

CCCCCCN(CCCCCC)CCCCNc1c2ccc(Cl)cc2nc2ccc(OC)cc12
XC50 (Plasmodium falciparum, 3D7): 535 nM

Cc1ccc(C)c(N2CCN(Cc3ccccc3O)CC2)c1
XC50 (Plasmodium falciparum, 3D7): 940 nM

O=C(Nc1ccc(-c2nc3ccccc3[nH]2)cc1)c1cncc(Br)c1
XC50 (Plasmodium falciparum, 3D7): 814 nM

Cc1cc(NCCC(=O)NCc2cccc(F)c2)nc(Nc2ccccc2)n1
XC50 (Plasmodium falciparum, 3D7): 1050 nM

CNC(=S)NCc1cnc2ccccn12
XC50 (Plasmodium falciparum, 3D7): 195 nM

COc1ccc2nccc([C@@H](O)CN3CCC(NCc4cn5cc(F)ccc5n4)CC3)c2c1
XC50 (Plasmodium falciparum, 3D7): 784 nM

Cc1cc(C(=O)Nc2ccc3c(c2)CCN3C2CCN(Cc3csc4ccccc34)C2)no1 (centres undefined)
XC50 (Plasmodium falciparum, 3D7): 119 nM

CC(C)N1CCC(NCc2ccc(-c3ccc(Cl)cc3)cc2)CC1
XC50 (Plasmodium falciparum, 3D7): 646 nM

COc1ccc(CNC(=O)C2Cc3ccccc3CN2Cc2ccc3ccccc3c2)cc1 (centres undefined)
XC50 (Plasmodium falciparum, 3D7): 1100 nM

CCCc1cc(Cc2cnc(N)nc2N)cc(OC)c1OC
XC50 (Plasmodium falciparum, 3D7): 988 nM

O=C1CCCN1CCCNCc1ccc(-c2ccc(-c3nc4cc(C(F)(F)F)ccc4[nH]3)s2)cc1
XC50 (Plasmodium falciparum, 3D7): 380 nM

COc1ccc(CCN(C)CCCCc2ccc(NC(=O)c3cccc4c(=O)c5cc(F)ccc5sc34)cc2)cc1OC
XC50 (Plasmodium falciparum, 3D7): 897 nM

CC(Cc1ccc(CNC(=O)c2ccc(CC(C)NCCc3cccc(Cl)c3)cc2)cc1)NCCc1cccc(Cl)c1 (centres undefined)
XC50 (Plasmodium falciparum, 3D7): 696 nM

O=C(Nc1ccc2c(c1)CCN2C1CCN(Cc2ccc(O)cc2)C1)c1ccco1 (centres undefined)
XC50 (Plasmodium falciparum, 3D7): 897 nM

C[C@H](NC(=O)c1cc(-c2ccc(C(C)(C)C)cc2)no1)C(=O)O.C[C@H](NC(=O)c1conc1-c1ccc(C(C)(C)C)cc1)C(=O)O
XC50 (Plasmodium falciparum, 3D7): 140 nM

Cc1cc(NCCC(=O)Nc2ccccc2)nc(NCCc2cccs2)n1
XC50 (Plasmodium falciparum, 3D7): 893 nM

O=C(/C=C/c1ccc(F)cc1)NC1CCC(CCN2CCCN(c3ccc(C(F)(F)F)cn3)CC2)CC1 (centres undefined)
XC50 (Plasmodium falciparum, 3D7): 1080 nM

CCOC(=O)CCCN1C(=O)CN=C(c2ccccc2)c2cc(Cl)ccc21
XC50 (Plasmodium falciparum, 3D7): 778 nM

Cc1ccccc1C1CCN(C2CCC(NC(=O)C3=Cc4ccccc4OC3)CC2)CC1 (centres undefined)
XC50 (Plasmodium falciparum, 3D7): 935 nM

NC(=O)C1CCN(Cc2ccc(-c3ccc(-c4nc5cc(C(F)(F)F)ccc5[nH]4)cc3)cc2)CC1
XC50 (Plasmodium falciparum, 3D7): 680 nM

CN1CCN=C1c1ccc(NC(=O)Nc2ccc(C3=NCCN3C)cc2)cc1
XC50 (Plasmodium falciparum, 3D7): 379 nM

Cc1cc(=NN=Cc2cccc(Cl)c2)c2ccccc2[nH]1
XC50 (Plasmodium falciparum, 3D7): 255 nM

COc1cc2nc(NCCn3ccnc3C)nc(NCCc3ccccc3)c2cc1OC
XC50 (Plasmodium falciparum, 3D7): 727 nM

C=CCNC(CCCCC)c1ccc(OCCOc2ccc(C(CCCCC)NCC=C)cc2)cc1 (centres undefined)
XC50 (Plasmodium falciparum, 3D7): 567 nM

Cc1cc(C(=O)CN2C(=O)NC3(CCCc4ccccc43)C2=O)c(C)n1Cc1ccco1 (centres undefined)
XC50 (Plasmodium falciparum, 3D7): 1100 nM

O=C(NCC1CCC(CNCCc2ccccc2)CC1)Nc1ccc(Cl)c(Cl)c1 (centres undefined)
XC50 (Plasmodium falciparum, 3D7): 745 nM

COc1ccc2cc(C(c3nnnn3CC3CCCO3)N3CCc4ccccc43)c(=O)[nH]c2c1 (centres undefined)
XC50 (Plasmodium falciparum, 3D7): 795 nM

COc1ccc(OC)c(Cc2cnc3nc(N)nc(N)c3c2C)c1 [PIRITREXIM]
XC50 (Plasmodium falciparum, 3D7): 10.2 nM

O=C(CC1CCCC1)Nc1ccc2c(c1)CCC2
XC50 (Plasmodium falciparum, 3D7): 868 nM
